Read-outs that look alike come from different tables or passages of the source.
Key:
[1] = test system: FGF-induced BrdU incorporation; test: FGF-induced BrdU incorporation assay; type: cell-based; details: read-out: FGF-Induced BrdU Incorp. IC50
Method: (§1) PDGF-, FGF-, and EGF-Induced BRDU Incorporation Assay
(§2) 1. Cells were seeded at 8000 cells/well in DMEM, 10% CS, 2 mM Gln in a 96 well plate. Cells were incubated overnight at 37° C. in 5% CO2.
(§3) 2. After 24 hours, the cells were washed with PBS, and then were serum starved in serum free medium (0% CS DMEM with 0.1% BSA) for 24 hours.
(§4) 3. On day 3, ligand (PDGF=3.8 nM, prepared in DMEM with 0.1% BSA) and test compounds were added to the cells simultaneously. The negative control wells received serum free DMEM with 0.1% BSA only; the positive control cells received the ligand (PDGF) but no test compound. Test compounds were prepared in serum free DMEM with ligand in a 96 well plate, and serially diluted for 7 test concentrations.
(§5) 4. After 20 hours of ligand activation, diluted BrdU labeling reagent (1:100 in DMEM, 0.1% BSA) was added and the cells were incubated with BrdU (final concentration=10 μM) for 1.5 hours.
(§6) 5. After incubation with labeling reagent, the medium was removed by decanting and tapping the inverted plate on a paper towel. FixDenat solution was added (50 μL/well) and the plates were incubated at room temperature for 45 minutes on a plate shaker.
(§7) 6. The FixDenat solution was thoroughly removed by decanting and tapping the inverted plate on a paper towel. Milk was added (5% dehydrated milk in PBS, 200 μL/well) as a blocking solution and the plate was incubated for 30 minutes at room temperature on a plate shaker.
(§8) 7. The blocking solution was removed by decanting and the wells were washed once with PBS. Anti-BrdU-POD solution (1:100 dilution in PBS, 1% BSA) was added (100 μL/well), and the plate was incubated for 90 minutes at room temperature on a plate shaker.
(§9) 8. The antibody conjugate was thoroughly removed by decanting and rinsing the wells 5 times with PBS, and the space was dried by inverting and tapping on a paper towel.
(§10) 9. TMB substrate solution was added (100 μL/well) and incubated for 20 minutes at room temperature on a plate shaker until color development was sufficient for photometric detection.
(§11) 10. The absorbance of the samples were measured at 410 nm (in “dual wavelength” mode with a filter reading at 490 nm, as a reference wavelength) on a Dynatech ELISA plate reader.
(§12) The IC50 values were measured for several of the compounds of the invention. These values are depicted in Table 10.

[2] = test system: EGF-induced BrdU incorporation; test: EGF-induced BrdU incorporation assay; type: cell-based; details: read-out: EGF-Induced BrdU Incorp. IC50
Method: as §1, §2, §3, §4, §5, §6, §7, §8, §9, §10, §11, §12

[3] = test system: HUV-EC-C cells; aFGF (ECGF); test: HUVEC-aFGF 3H-thymidine incorporation assay; type: cell-based, human; details: Homo sapiens
Method: The following protocol is used to measure a compound's activity against VEGF and aFGF, all of which are expressed by HUVEC cells.
Repeat the wash two more times with D-PBS, resuspend the cells in about 1 mL assay medium/15 cm^2 of tissue culture flask.
Add cells to 96-well flat-bottom plates at 100 μL/well or 0.8-1.0×10^4 cells/well; incubate ˜24h at 37° C., 5% CO^2.
Use the same assay medium as mentioned in day 0, step 2 above. Titrations are made by adding 90 μL/well of drug at 200 μM (4× the final well concentration) to the top well of a particular plate column. Since the stock drug concentration is usually 20 mM in DMSO, the 200 μM drug concentration contains 2% DMSO.
Therefore, diluent made up to 2% DMSO in assay medium (F12K+0.5% fetal bovine serum) is used as diluent for the drug titrations in order to dilute the drug but keep the DMSO concentration constant. Add this diluent to the remaining wells in the column at 60 μL/well. Take 60 μL from the 120 μL of 200 μM drug dilution in the top well of the column and mix with the 60 μL in the second well of the column. Take 60 μL from this well and mix with the 60 μL in the third well of the column, and so on until two-fold titrations are completed. When the next-to-the-last well is mixed, take 60 μL of the 120 μL in this well and discard it. Leave the last well with 60 μL of DMSO/media diluent as a non-drug-containing control. Make 9 columns of titrated drug, enough for triplicate wells each for 1) VEGF (obtained from Pepro Tech Inc., catalogue no. […] ECGF comes as a preparation with sodium heparin.
Transfer 50 μL/well of the drug dilutions to the 96-well assay plates containing the 0.8-1.0×10^4 cells/100 μL/well of the HUV-EC-C cells from day 0. and incubate ˜2 h at 37° C., 5% CO2.
In triplicate, add 50 μL/well of 80 μg/mL VEGF, 20 ng/mL ECGF, or media control to each drug condition. As with the drugs, the growth factor concentrations are 4× the desired final concentration. Use the assay media from day 0 step 2 to make the concentrations of growth factors.
Freeze plates overnight at 20° C.

[4] = biological target: T1, FLK-1 receptor (Mus musculus, UniProt P35918); test: ELISA assay measuring the kinase activity of the FLK-1 receptor in cells engineered to express FLK-1; type: cell-based; details: NIH3T3 C7#3 FLK-1 expressing cells, VEGF stimulation, phosphotyrosine ELISA
T1 construct: expressed in transfected cells; host or cells: NIH3T3 C7#3
T1 sequence (P35918 20-1345): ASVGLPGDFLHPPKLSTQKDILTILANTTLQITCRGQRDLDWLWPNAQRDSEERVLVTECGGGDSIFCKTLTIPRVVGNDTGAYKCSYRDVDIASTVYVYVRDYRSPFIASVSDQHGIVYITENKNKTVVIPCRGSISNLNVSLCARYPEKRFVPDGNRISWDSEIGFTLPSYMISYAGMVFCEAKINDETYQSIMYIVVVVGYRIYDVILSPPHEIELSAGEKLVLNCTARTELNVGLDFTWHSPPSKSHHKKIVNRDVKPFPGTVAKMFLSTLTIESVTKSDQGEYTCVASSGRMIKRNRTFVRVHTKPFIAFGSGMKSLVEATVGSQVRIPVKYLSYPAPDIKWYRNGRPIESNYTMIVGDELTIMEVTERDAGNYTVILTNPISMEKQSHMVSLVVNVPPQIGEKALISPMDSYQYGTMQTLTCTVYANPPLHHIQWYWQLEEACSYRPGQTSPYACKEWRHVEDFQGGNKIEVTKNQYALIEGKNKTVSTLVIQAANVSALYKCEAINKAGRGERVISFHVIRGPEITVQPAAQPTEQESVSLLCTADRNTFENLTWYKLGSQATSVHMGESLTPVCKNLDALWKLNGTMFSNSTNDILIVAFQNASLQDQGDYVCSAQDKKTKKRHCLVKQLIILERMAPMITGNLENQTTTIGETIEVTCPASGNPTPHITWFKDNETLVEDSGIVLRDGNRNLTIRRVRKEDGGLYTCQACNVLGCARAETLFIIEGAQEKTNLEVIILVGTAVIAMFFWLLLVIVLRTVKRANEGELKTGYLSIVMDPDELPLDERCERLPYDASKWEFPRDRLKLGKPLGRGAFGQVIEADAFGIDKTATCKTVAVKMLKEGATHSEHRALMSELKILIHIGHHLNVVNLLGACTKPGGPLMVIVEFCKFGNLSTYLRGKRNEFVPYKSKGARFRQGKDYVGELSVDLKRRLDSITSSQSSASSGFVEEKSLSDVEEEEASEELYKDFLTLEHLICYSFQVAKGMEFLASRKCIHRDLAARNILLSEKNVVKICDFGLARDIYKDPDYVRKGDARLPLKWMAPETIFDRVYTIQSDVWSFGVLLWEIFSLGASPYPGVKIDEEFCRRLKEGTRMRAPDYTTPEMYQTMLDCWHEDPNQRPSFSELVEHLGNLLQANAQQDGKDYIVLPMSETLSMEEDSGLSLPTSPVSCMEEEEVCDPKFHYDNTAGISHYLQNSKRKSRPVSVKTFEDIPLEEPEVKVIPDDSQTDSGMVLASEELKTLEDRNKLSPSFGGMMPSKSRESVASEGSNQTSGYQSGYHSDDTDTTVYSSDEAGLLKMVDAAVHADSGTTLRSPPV
Method: An ELISA assay was conducted to measure the kinase activity of the FLK-1 receptor and more specifically, the inhibition or activation of TK activity on the FLK-1 receptor. Specifically, the following assay was conducted to measure kinase activity of the FLK-1 receptor in cells genetically engineered to express FLK-1.
(11) NIH3T3 C7#3 Cells (FLK-1 expressing cells);
The following protocol was used for conducting the assay:
1. Coat Corning 96-well elisa plates with 1.0 μg per well Cappel Anti-rabbit IgG antibody in 0.1 M Na2CO3 pH 9.6. Bring final volume to 150 μL per well. Coat plates overnight at 4° C. Plates can be kept up to two weeks when stored at 4° C.
2. Grow cells in Growth media (DMEM, supplemental with 2.0 mM L-Glutamine, 10% FBS) in suitable culture dishes until confluent at 37° C., 5% CO2.
3. Harvest cells by trypsinization and seed in Corning 25850 polystyrene 96-well roundbottom cell plates, 25.000 cells/well in 200 μL of growth media.
4. Grow cells at least one day at 37° C., 5% CO2.
5. Wash cells-with D-PBS 1×.
6. Add 200 μL/well of starvation media (DMEM, 2.0 mM 1-Glutamine, 0.1% FBS). Incubate overnight at 37° C., 5% CO2.
7. Dilute Compounds 1:20 in polypropylene 96 well plates using starvation media. Dilute dimethylsulfoxide 1:20 for use in control wells.
8. Remove starvation media from 96 well cell culture plates and add 162 μL of fresh starvation media to each well.
9. Add 18 μL of 1:20 diluted Compound dilution (from step 7) to each well plus the 1:20 dimethylsulfoxide dilution to the control wells (+/− VEGF), for a final dilution of 1:200 after cell stimulation. Final dimethylsulfoxide is 0.5%. Incubate the plate at 37° C., 5% CO2 for two hours.
10. Remove unbound antibody from ELISA plates by inverting plate to remove liquid. Wash 3 times with TBSW+0.5% ethanolamine, pH 7.0. Pat the plate on a paper towel to remove excess liquid and bubbles.
11. Block plates with TBSW+0.5% Ethanolamine, pH 7.0, 150 μL per well. Incubate plate thirty minutes while shaking on a microliter plate shaker.
12. Wash plate 3 times as described in step 10.
13. […] Bring final volume to 150 μL/well with TBSW+0.5% ethanolamine pH 7.0. Incubate plate for thirty minutes while shaking.
14. Add 180 μL starvation medium to the cells and stimulate cells with 20 μL/well 10.0 mM sodium ortho vanadate and 500 ng/mL VEGF (resulting in a final concentration of 1.0 mM sodium ortho vanadate and 50 ng/mL VEGF per well) for eight minutes at 37° C., 5% CO2. Negative control wells receive only starvation medium.
15. After eight minutes, media should be removed from the cells and washed one time with 200 μL/well PBS.
16. Lyse cells in 150 μL/well HNTG while shaking at room temperature for five minutes. HNTG formulation includes sodium ortho vanadate, sodium pyro phosphate and EDTA.
17. Wash ELISA plate three times as described in step 10.
18. Transfer cell lysates from the cell plate to ELISA plate and incubate while shaking for two hours. To transfer cell lysate pipette up and down while scrapping the wells.
19. Wash plate three times as described in step 10.
20. Incubate ELISA plate with 0.02 μg/well UB40 in TBSW+05% ethanolamine. Bring final volume to 150 μL/well. Incubate while shaking for 30 minutes.
21. Wash plate three times as described in step 10.
22. Incubate ELISA plate with 1:10,000 diluted EIA grade goat anti-mouse IgG conjugated horseradish peroxidase in TBSW+0.5% ethanolamine, pH 7.0. Bring final volume to 150 μL/well. Incubate while shaking for thirty minutes.
23. Wash plate as described in step 10.
24. Add 100 μL of ABTS/H2O2 solution to well. Incubate ten minutes while shaking.
25. Add 100 μL of 0.2 M HCl for 0.1 M HCl final to stop the color development reaction. Shake 1 minute at room temperature. Remove bubbles with slow stream of air and read the ELISA plate in an ELISA plate reader at 410 nm.
The IC50 values were measured for several of the compounds of the invention.

`Cc1c[nH]c(C=C2C(=O)Nc3cccc(C)c32)c1CCC(=O)O` [IN-029, 3-[2-(4-Methyl-2-oxo-1,2-dihydro-indol-3-ylidenemethyl)-4-methyl-1H-pyrrol-3-yl]-propionic acid] gave an IC50 [1] of over 50000 nM, an IC50 ([2]; EGF-induced) of 43500 nM and an IC50 [3] of 350 nM. It also gave an IC50 [4] of 200 nM.

`Cc1c[nH]c(C=C2C(=O)Nc3cc(Cl)ccc32)c1CCC(=O)O` [IN-030, 3-[2-(6-Chloro-2-oxo-1,2-dihydro-indol-3-ylidenemethyl)-4-methyl-1H-pyrrol-3-yl]-propionic acid] gave an IC50 [1] of over 50000 nM, an IC50 [2] of over 50000 nM and an IC50 [3] of 260 nM. The IC50 [4] was 190 nM.

Source: US20040067531A1, “Methods of modulating protein tyrosine kinase function with substituted indolinone compounds” (SUGEN, INC., priority 1997, published 2004)
